Activity calls are given as the source filed them. The calls are words filed in the database; no cut-off is given here.
Assays:
Mus musculus [1] = test: Antiinflammatory activity against MCD diet-induced NASH C57BL/6 mouse model assessed as reduction in liver fibrosis at 40 mg/kg, po administered via gavage for 5 weeks by Masson's trichrome staining based analysis; assay type: functional, organism-based
[2] = Toxicity against female ICR mouse assessed as effect on body weight at 200 to 500 mg/kg administered via gavage for 12 days; assay type: organism-based; conditions: in vivo, po, 288 h, dose 200-500 mg/kg, time 12 day
[3] = Toxicity against female ICR mouse assessed as effect on heart weight at 200 to 500 mg/kg administered via gavage for 12 days; assay type: organism-based; conditions: in vivo, po, 288 h, dose 200-500 mg/kg, time 12 day
[4] = Toxicity against male ICR mouse assessed as effect on brain weight at 200 to 500 mg/kg administered via gavage for 12 days; assay type: organism-based; conditions: in vivo, po, 288 h, dose 200-500 mg/kg, time 12 day
[5] = Toxicity against male ICR mouse assessed as effect on heart weight at 200 to 500 mg/kg administered via gavage for 12 days; assay type: organism-based; conditions: in vivo, po, 288 h, dose 200-500 mg/kg, time 12 day
[6] = Toxicity against male ICR mouse assessed as effect on liver weight at 200 to 500 mg/kg administered via gavage for 12 days; assay type: organism-based; conditions: in vivo, po, 288 h, dose 200-500 mg/kg, time 12 day
[7] = Toxicity against male ICR mouse assessed as effect on lung weight at 200 to 500 mg/kg administered via gavage for 12 days; assay type: organism-based; conditions: in vivo, po, 288 h, dose 200-500 mg/kg, time 12 day
[8] = Toxicity against male ICR mouse assessed as effect on plasma creatinine level at 200 to 500 mg/kg administered via gavage for 12 days; assay type: organism-based; conditions: in vivo, po, 288 h, dose 200-500 mg/kg, time 12 day
[9] = target: NACHT, LRR and PYD domains-containing protein 3 (Mus musculus) (UniProt Q8R4B8); test: Inhibition of NLRP3 inflammasome in mouse J774.A1 cells assessed as inhibition of caspase-1 activation primed with LPS for 4.5 hrs followed by incubation with compound for 2.5 hrs and later stimulated with ATP for 30 mins by immunoblot analysis; assay type: cell-based; conditions: dose 3-30 nM, time 3.0 hrs
NACHT, LRR and PYD domains-containing protein 3 (Mus musculus), sequence (Q8R4B8 whole entry, the tested form may be a part): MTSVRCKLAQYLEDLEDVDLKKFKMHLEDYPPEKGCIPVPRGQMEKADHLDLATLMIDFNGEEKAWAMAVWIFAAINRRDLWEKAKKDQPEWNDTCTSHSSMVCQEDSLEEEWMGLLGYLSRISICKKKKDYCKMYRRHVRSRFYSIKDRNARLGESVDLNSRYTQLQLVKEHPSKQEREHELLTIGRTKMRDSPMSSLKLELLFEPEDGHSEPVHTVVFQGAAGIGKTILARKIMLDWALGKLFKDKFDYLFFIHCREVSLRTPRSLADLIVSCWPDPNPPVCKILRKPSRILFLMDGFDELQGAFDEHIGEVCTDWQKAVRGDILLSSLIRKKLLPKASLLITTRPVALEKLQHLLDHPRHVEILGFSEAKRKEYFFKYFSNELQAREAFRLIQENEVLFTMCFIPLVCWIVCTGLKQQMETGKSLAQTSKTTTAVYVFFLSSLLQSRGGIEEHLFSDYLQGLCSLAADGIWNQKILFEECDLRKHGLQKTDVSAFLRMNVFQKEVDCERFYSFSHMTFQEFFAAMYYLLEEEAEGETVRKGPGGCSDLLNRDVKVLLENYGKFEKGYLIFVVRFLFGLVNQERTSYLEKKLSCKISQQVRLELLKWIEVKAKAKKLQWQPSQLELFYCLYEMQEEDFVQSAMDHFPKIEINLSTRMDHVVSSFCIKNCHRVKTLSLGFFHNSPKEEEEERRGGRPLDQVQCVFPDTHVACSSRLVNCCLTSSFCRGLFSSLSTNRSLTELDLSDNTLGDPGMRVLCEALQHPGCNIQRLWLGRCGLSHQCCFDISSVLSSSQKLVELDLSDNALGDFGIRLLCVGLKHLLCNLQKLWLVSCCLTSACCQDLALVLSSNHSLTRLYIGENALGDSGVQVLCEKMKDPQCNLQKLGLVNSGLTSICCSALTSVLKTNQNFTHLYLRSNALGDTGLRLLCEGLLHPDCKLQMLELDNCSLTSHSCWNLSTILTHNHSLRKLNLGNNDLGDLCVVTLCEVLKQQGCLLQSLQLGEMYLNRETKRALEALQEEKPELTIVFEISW

[10] = target: NACHT, LRR and PYD domains-containing protein 3 (Mus musculus) (UniProt Q8R4B8); test: Inhibition of NLRP3 inflammasome in mouse J774.A1 cells assessed as inhibition of IL-1 beta secretion primed with LPS for 4.5 hrs followed by incubation with compound for 2.5 hrs and later stimulated with ATP for 30 mins by immunoblot analysis; assay type: cell-based; conditions: dose 3-30 nM, time 3.0 hrs
J774.A1 = test: Effect on pro-IL-1 beta protein expression in mouse J774.A1 cells at 3 to 30 nM primed with LPS for 4.5 hrs followed by incubation with compound for 2.5 hrs and later stimulated with ATP for 30 mins by immunoblot analysis; assay type: functional, cell-based; conditions: dose 3-30 nM, time 3.0 hrs
[11] = target: NACHT, LRR and PYD domains-containing protein 3 (Homo sapiens) (UniProt Q96P20); test: Inhibition of NLRP3 inflammasome in PMA-induced differentiated human THP-1 cells assessed as inhibition of caspase-1 activation primed with LPS for 4.5 hrs followed by incubation with compound for 2.5 hrs and later stimulated with ATP for 1 hr by immunoblot analysis; assay type: cell-based; conditions: dose 3-30 nM, time 3.5 hrs
NACHT, LRR and PYD domains-containing protein 3 (Homo sapiens), sequence (Q96P20 whole entry, the tested form may be a part): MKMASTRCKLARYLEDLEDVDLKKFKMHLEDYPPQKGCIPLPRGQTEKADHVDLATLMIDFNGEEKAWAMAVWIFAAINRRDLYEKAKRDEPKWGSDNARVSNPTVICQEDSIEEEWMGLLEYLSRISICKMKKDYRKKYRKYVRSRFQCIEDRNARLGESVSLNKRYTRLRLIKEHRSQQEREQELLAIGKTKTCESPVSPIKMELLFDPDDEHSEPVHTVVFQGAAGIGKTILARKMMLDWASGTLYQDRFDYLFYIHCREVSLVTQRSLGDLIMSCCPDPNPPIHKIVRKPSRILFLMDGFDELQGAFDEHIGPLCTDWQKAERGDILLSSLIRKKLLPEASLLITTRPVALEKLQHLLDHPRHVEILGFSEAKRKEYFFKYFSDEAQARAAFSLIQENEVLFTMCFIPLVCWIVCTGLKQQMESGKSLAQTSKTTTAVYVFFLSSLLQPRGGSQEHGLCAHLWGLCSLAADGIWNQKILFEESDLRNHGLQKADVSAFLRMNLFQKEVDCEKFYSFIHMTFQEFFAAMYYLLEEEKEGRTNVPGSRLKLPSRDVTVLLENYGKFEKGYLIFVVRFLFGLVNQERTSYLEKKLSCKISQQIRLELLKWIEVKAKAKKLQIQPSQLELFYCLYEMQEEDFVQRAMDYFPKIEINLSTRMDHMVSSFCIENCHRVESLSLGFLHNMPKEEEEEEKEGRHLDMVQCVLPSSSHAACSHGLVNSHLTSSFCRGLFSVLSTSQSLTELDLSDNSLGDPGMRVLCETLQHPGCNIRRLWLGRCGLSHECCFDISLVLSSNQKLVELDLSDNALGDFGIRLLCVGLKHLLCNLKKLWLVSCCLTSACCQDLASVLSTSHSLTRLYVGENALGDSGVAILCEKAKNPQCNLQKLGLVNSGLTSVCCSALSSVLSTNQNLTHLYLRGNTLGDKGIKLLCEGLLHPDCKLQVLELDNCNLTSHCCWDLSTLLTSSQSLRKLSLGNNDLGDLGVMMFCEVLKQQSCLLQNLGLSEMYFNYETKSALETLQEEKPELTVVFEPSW

[12] = target: NACHT, LRR and PYD domains-containing protein 3 (Mus musculus) (UniProt Q8R4B8); test: Inhibition of NLRP3 inflammasome in mouse J774.A1 cells assessed as inhibition of caspase-1 activation at 30 nM primed with LPS for 4.5 hrs followed by incubation with compound for 24 hrs and later stimulated with nigericin for 1 hr by immunoblot analysis; assay type: cell-based; conditions: time 25.0 hrs
[13] = target: T1, Interferon-inducible protein AIM2 (Mus musculus) (UniProt Q91VJ1); test: Inhibition of AIM2 inflammasome in mouse J774.A1 cells assessed as inhibition of caspase-1 activation at 30 nM primed with LPS for 4.5 hrs followed by incubation with compound for 24 hrs and later stimulated with poly (dA:dT) for 6 hrs by immunoblot analysis; assay type: cell-based; conditions: time 30.0 hrs
T1 sequence (whole entry): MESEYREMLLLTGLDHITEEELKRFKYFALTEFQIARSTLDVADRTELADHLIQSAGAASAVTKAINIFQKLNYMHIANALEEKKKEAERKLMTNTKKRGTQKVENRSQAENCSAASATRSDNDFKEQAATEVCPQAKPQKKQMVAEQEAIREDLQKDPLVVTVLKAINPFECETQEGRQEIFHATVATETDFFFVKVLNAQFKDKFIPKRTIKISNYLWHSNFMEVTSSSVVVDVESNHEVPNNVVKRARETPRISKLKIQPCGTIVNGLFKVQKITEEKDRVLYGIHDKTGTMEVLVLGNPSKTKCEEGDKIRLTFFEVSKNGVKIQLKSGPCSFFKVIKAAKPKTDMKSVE

[14] = target: T1, Interferon-inducible protein AIM2 (Mus musculus); test: Inhibition of AIM2 inflammasome in mouse J774.A1 cells assessed as inhibition of IL-1 beta secretion at 30 nM primed with LPS for 4.5 hrs followed by incubation with compound for 24 hrs and later stimulated with poly (dA:dT) for 6 hrs by immunoblot analysis; assay type: cell-based; conditions: time 30.0 hrs
[15] = target: NLR family CARD domain-containing protein 4 (Mus musculus) (UniProt Q3UP24); test: Inhibition of NLRC4 inflammasome in mouse J774.A1 cells assessed as inhibition of IL-1 beta secretion at 30 nM primed with LPS for 4.5 hrs followed by incubation with compound for 24 hrs and later stimulated with flagellin for 24 hrs by immunoblot analysis; assay type: cell-based; conditions: time 48.0 hrs
NLR family CARD domain-containing protein 4 (Mus musculus), sequence (Q3UP24 whole entry, the tested form may be a part): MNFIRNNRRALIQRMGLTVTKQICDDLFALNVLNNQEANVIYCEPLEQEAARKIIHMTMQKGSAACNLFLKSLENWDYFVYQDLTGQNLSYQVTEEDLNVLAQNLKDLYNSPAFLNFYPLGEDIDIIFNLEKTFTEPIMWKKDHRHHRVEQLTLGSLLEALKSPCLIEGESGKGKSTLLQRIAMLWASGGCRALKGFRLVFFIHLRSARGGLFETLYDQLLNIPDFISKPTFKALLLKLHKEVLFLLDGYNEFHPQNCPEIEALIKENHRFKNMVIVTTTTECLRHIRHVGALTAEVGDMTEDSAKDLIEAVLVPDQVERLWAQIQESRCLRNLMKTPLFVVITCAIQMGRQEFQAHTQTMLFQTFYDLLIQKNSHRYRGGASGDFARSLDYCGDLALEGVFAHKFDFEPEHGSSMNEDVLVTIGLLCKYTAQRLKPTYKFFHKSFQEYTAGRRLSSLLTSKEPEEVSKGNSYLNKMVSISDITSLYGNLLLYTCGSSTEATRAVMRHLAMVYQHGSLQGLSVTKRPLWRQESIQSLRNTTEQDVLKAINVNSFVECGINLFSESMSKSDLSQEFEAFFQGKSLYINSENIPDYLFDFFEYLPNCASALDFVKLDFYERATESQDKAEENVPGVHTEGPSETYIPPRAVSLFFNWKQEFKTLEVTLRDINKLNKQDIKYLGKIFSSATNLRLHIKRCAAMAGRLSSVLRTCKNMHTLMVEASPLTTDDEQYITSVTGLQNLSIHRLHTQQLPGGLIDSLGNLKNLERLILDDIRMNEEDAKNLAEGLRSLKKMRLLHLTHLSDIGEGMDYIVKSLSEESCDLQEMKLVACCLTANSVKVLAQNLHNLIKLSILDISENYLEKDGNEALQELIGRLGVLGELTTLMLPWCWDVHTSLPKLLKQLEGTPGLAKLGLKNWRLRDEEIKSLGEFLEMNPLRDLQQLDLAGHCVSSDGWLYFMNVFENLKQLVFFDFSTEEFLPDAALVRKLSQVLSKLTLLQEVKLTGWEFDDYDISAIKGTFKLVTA

THP-1 = test: Effect on ROS production in PMA-induced differentiated human THP-1 cells at 30 nM pretreated with compound for 24 hrs followed by stimulation with LPS for 4.5 hrs and ATP for 1 hr by MitoSOX dye based confocal microscopy; assay type: functional, cell-based; conditions: time 29.5 hrs
[16] = Apparent volume of distribution in ICR mouse at 5 mg/kg, iv by LC-MS/MS analysis; assay type: ADME, organism-based; conditions: in vivo, read-out: Vz
[17] = Half life in ICR mouse at 10 mg/kg, po by LC-MS/MS analysis; assay type: ADME, organism-based; conditions: in vivo
[18] = Cmax in ICR mouse at 10 mg/kg, po by LC-MS/MS analysis; assay type: ADME, organism-based; set-up: dose 10 mg/kg, route po; conditions: in vivo
[19] = AUC (0 to infinity) in ICR mouse at 10 mg/kg, po by LC-MS/MS analysis; assay type: ADME, organism-based; set-up: dose 10 mg/kg, route po; conditions: in vivo
[20] = Oral bioavailability in ICR mouse at 10 mg/kg by LC-MS/MS analysis; assay type: ADME, organism-based; conditions: in vivo
[21] = Drug uptake in Sprague-Dawley rat stomach at 50 mg/kg, po measured for 24 hrs by LC-MS/MS analysis; assay type: ADME, organism-based; conditions: in vivo
[22] = Drug uptake in Sprague-Dawley rat liver at 50 mg/kg, po measured for 24 hrs by LC-MS/MS analysis; assay type: ADME, organism-based; conditions: in vivo
[23] = Drug uptake in Sprague-Dawley rat muscle at 50 mg/kg, po measured for 24 hrs by LC-MS/MS analysis; assay type: ADME, organism-based, Muscle tissue; conditions: in vivo
Mus musculus [24] = test: Antiinflammatory activity against MCD diet-induced NASH C57BL/6 mouse model assessed as reduction in liver fibrosis at 40 mg/kg, po administered via gavage for 5 weeks by H and E staining based analysis; assay type: functional, organism-based
Mus musculus [25] = test: Antiinflammatory activity against LPS-induced lethal septic shock C57BL/6 mouse model assessed as increase in animal's survival rate at 40 mg/kg, ip administered for 1 hr prior to LPS challenge and measured for 72 hrs; assay type: functional; conditions: time 73 hrs
Mus musculus [26] = test: Antiinflammatory activity against DSS-induced ulcerative colitis C57BL/6 mouse assessed as reduction in body weight loss at 10 mg/kg, ip administered for 9 days and measured daily; assay type: functional, organism-based; conditions: time 9.0 day
Mus musculus [27] = test: Antiinflammatory activity against DSS-induced ulcerative colitis C57BL/6 mouse assessed as reduction in crypt necrosis in colon at 10 mg/kg, ip administered for 9 days and measured on day 10 by H and E staining based analysis; assay type: functional, organism-based; conditions: time 10.0 day

CN(C)Cc1ccc(S(=O)(=O)NC(=O)Nc2c3c(cc4c2CCC4)CCC3)cc1
Activity (Mus musculus [1]): Active | Activity [2]: Non-Toxic | Activity [3]: Non-Toxic | Activity [4]: Non-Toxic | Activity [5]: Non-Toxic | Activity [6]: Non-Toxic | Activity [7]: Non-Toxic | Activity [8]: Non-Toxic | inhibition [9]: Dose-Dependent Effect | inhibition [10]: Dose-Dependent Effect | Activity (J774.A1): inactive | inhibition [11]: Dose-Dependent Effect | inhibition [12]: Active | inhibition [13]: inactive | inhibition [14]: inactive | inhibition [15]: inactive | Activity (THP-1): inactive | Vd [16]: 0.226 L/kg | half-life [17]: 3.5 h | Cmax [18]: 33900 ng/mL | AUC(0-inf) [19]: 222 µg·h/mL | bioavailability [20]: 85.2% | Drug uptake [21]: Active | Drug uptake [22]: Active | Drug uptake [23]: Active | Activity (Mus musculus [24]): Active | survival at 40 mg/kg (Mus musculus [25]): 70% | Activity (Mus musculus [26]): Active | Activity (Mus musculus [27]): Active
